Experimental data from PubChem BioAssay (NCI).
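Assay format: 96-well plates, 48-hour exposure. GI50: concentration for 50% inhibition of growth. At the TGI there is no net growth.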

Key:
Test in all cases: NCI-60 cell line screen, 48 h
HOP-92 NSCLC = tested on: HOP-92 NSCLC
MCF7 breast = tested on: MCF7 breast
UACC-257 melanoma = tested on: UACC-257 melanoma
SK-MEL-2 melanoma = tested on: SK-MEL-2 melanoma
SK-MEL-5 melanoma = tested on: SK-MEL-5 melanoma
T-47D breast = tested on: T-47D breast
SK-MEL-28 melanoma = tested on: SK-MEL-28 melanoma
COLO 205 colon = tested on: COLO 205 colon
RXF 393 renal = tested on: RXF 393 renal
OVCAR-4 ovarian = tested on: OVCAR-4 ovarian

COC(=O)c1c[nH]c(=O)[nH]c1=O
TGI (HOP-92 NSCLC): > 100 µM
TGI (MCF7 breast): > 100 µM
TGI (UACC-257 melanoma): > 100 µM
TGI (SK-MEL-2 melanoma): > 100 µM
TGI (SK-MEL-5 melanoma): > 100 µM
TGI (T-47D breast): > 100 µM
TGI (SK-MEL-28 melanoma): > 100 µM
TGI (COLO 205 colon): > 100 µM

COc1ccc(C2OC(=O)c3c2ccc2ccccc32)c(C)c1 (configuration not stated)
TGI (RXF 393 renal): > 100 µM
TGI (HOP-92 NSCLC): 80.1 µM
TGI (MCF7 breast): 10.1 µM
TGI (UACC-257 melanoma): 80.5 µM
TGI (SK-MEL-2 melanoma): 7.52 µM
TGI (SK-MEL-5 melanoma): 6.82 µM
TGI (SK-MEL-28 melanoma): > 100 µM
TGI (COLO 205 colon): 21.9 µM

CCN1CCN(c2nc(NNC(=O)Cc3ccccc3)nc(N3CCN(C(c4ccccc4)c4ccccc4)CC3)n2)CC1
GI50 (RXF 393 renal): 1.92 µM
TGI (RXF 393 renal): 4.08 µM
GI50 (OVCAR-4 ovarian): 4.71 µM
TGI (OVCAR-4 ovarian): 17.5 µM
GI50 (HOP-92 NSCLC): 1.89 µM
TGI (HOP-92 NSCLC): 4.7 µM
GI50 (UACC-257 melanoma): 1.83 µM
TGI (UACC-257 melanoma): 3.79 µM
GI50 (SK-MEL-2 melanoma): 2.1 µM
TGI (SK-MEL-2 melanoma): 4.5 µM
GI50 (SK-MEL-5 melanoma): 1.71 µM
TGI (SK-MEL-5 melanoma): 3.12 µM
GI50 (T-47D breast): 1.85 µM
TGI (T-47D breast): 4.8 µM
GI50 (SK-MEL-28 melanoma): 1.6 µM
TGI (SK-MEL-28 melanoma): 2.98 µM
GI50 (COLO 205 colon): 1.88 µM
TGI (COLO 205 colon): 3.82 µM

Cl.[Pt].[c-]1ccccc1-c1ccccn1.c1ccc(P(c2ccccc2)C([PH+](c2ccccc2)c2ccccc2)[PH+](c2ccccc2)c2ccccc2)cc1
GI50 (RXF 393 renal): 1.48 µM
TGI (RXF 393 renal): 4.01 µM
GI50 (OVCAR-4 ovarian): 0.662 µM
TGI (OVCAR-4 ovarian): 8.63 µM
GI50 (HOP-92 NSCLC): 1.41 µM
TGI (HOP-92 NSCLC): 5.18 µM
GI50 (MCF7 breast): 1.52 µM
TGI (MCF7 breast): 47 µM
GI50 (UACC-257 melanoma): 3.26 µM
TGI (UACC-257 melanoma): 38 µM
GI50 (SK-MEL-2 melanoma): 2.09 µM
TGI (SK-MEL-2 melanoma): 5.92 µM
GI50 (SK-MEL-5 melanoma): 1.25 µM
TGI (SK-MEL-5 melanoma): 2.8 µM
GI50 (T-47D breast): 0.916 µM
TGI (T-47D breast): 19.5 µM
GI50 (SK-MEL-28 melanoma): 2.64 µM
TGI (SK-MEL-28 melanoma): 9.7 µM

C(=N\Nc1nnc2c(n1)[nH]c1ccccc12)/c1cccnc1
TGI (RXF 393 renal): > 100 µM
TGI (OVCAR-4 ovarian): > 100 µM
TGI (HOP-92 NSCLC): > 100 µM
TGI (MCF7 breast): > 100 µM
TGI (UACC-257 melanoma): > 100 µM
TGI (SK-MEL-2 melanoma): > 100 µM
TGI (SK-MEL-5 melanoma): > 100 µM
TGI (T-47D breast): > 100 µM
TGI (SK-MEL-28 melanoma): > 100 µM
TGI (COLO 205 colon): > 100 µM

CC(CN=C(CC(=O)c1ccc(Br)cc1)c1ccccc1)N=C(CC(=O)c1ccc(Br)cc1)c1ccccc1 (configuration not stated)
GI50 (RXF 393 renal): 5.59 µM
TGI (RXF 393 renal): > 100 µM
GI50 (OVCAR-4 ovarian): 8.15 µM
TGI (OVCAR-4 ovarian): > 100 µM
GI50 (HOP-92 NSCLC): 11.5 µM
TGI (HOP-92 NSCLC): 78.8 µM
GI50 (MCF7 breast): 2.91 µM
TGI (MCF7 breast): > 100 µM
GI50 (UACC-257 melanoma): 7.77 µM
TGI (UACC-257 melanoma): > 100 µM
GI50 (SK-MEL-2 melanoma): 3.48 µM
TGI (SK-MEL-2 melanoma): > 100 µM
GI50 (SK-MEL-5 melanoma): 2.18 µM
TGI (SK-MEL-5 melanoma): 8.9 µM
GI50 (T-47D breast): 3.09 µM
TGI (T-47D breast): > 100 µM
GI50 (SK-MEL-28 melanoma): > 100 µM
TGI (SK-MEL-28 melanoma): > 100 µM
GI50 (COLO 205 colon): 7.58 µM
TGI (COLO 205 colon): > 100 µM

Cc1c[nH]c2c1C13CC1CN(C(=O)c1cc4cc(NC(=O)c5cc6ccccc6o5)ccc4[nH]1)C3=CC2=O (configuration not stated)
TGI (RXF 393 renal): < 0.001 µM
GI50 (OVCAR-4 ovarian): > 1.17 ng/mL
TGI (OVCAR-4 ovarian): < 0.001 µM
GI50 (HOP-92 NSCLC): > 1.17 ng/mL
GI50 (MCF7 breast): > 1.17 ng/mL
TGI (MCF7 breast): 11700 ng/mL
GI50 (SK-MEL-2 melanoma): > 1.17 ng/mL
TGI (SK-MEL-2 melanoma): < 0.001 µM
GI50 (SK-MEL-5 melanoma): > 1.17 ng/mL
TGI (SK-MEL-5 melanoma): < 0.001 µM

COc1ccc(C(=O)c2cc(OC)c(OC)c(OC)c2)cc1OC(C)=O
GI50 (RXF 393 renal): 0.0391 µM
TGI (RXF 393 renal): > 100 µM
GI50 (OVCAR-4 ovarian): 0.0822 µM
TGI (OVCAR-4 ovarian): > 100 µM
GI50 (HOP-92 NSCLC): 1.73 µM
TGI (HOP-92 NSCLC): > 100 µM
GI50 (MCF7 breast): 0.0346 µM
TGI (MCF7 breast): > 100 µM
GI50 (UACC-257 melanoma): > 100 µM
TGI (UACC-257 melanoma): > 100 µM
GI50 (SK-MEL-2 melanoma): 0.0848 µM
TGI (SK-MEL-2 melanoma): > 100 µM
GI50 (SK-MEL-5 melanoma): 0.0325 µM
TGI (SK-MEL-5 melanoma): 0.311 µM
GI50 (T-47D breast): 19.9 µM
TGI (T-47D breast): > 100 µM
GI50 (SK-MEL-28 melanoma): 11.2 µM
TGI (SK-MEL-28 melanoma): > 100 µM
GI50 (COLO 205 colon): 0.786 µM
TGI (COLO 205 colon): 10.1 µM

O=C(/C=C/c1ccc(C(F)(F)F)cc1)c1ccc(Nc2nc(NCCO)nc(NCCO)n2)cc1
GI50 (RXF 393 renal): 1.6 µM
TGI (RXF 393 renal): 3.44 µM
GI50 (OVCAR-4 ovarian): 4.29 µM
TGI (OVCAR-4 ovarian): 20.8 µM
GI50 (HOP-92 NSCLC): 5.28 µM
TGI (HOP-92 NSCLC): 25 µM
GI50 (MCF7 breast): 1.66 µM
TGI (MCF7 breast): 5.16 µM
GI50 (UACC-257 melanoma): 10.3 µM
TGI (UACC-257 melanoma): 23.4 µM
GI50 (SK-MEL-5 melanoma): 3.12 µM
TGI (SK-MEL-5 melanoma): 10.5 µM
GI50 (T-47D breast): 2.51 µM
TGI (T-47D breast): 11.8 µM
GI50 (SK-MEL-28 melanoma): 3.45 µM
TGI (SK-MEL-28 melanoma): 13 µM
GI50 (COLO 205 colon): 2.05 µM
TGI (COLO 205 colon): 4.22 µM

COc1ccc(-c2oc(=O)ccc2C#Cc2cc(OC)c(OC)c(OC)c2)cc1O
GI50 (RXF 393 renal): 10.9 µM
TGI (RXF 393 renal): 31.9 µM
GI50 (OVCAR-4 ovarian): 67 µM
TGI (OVCAR-4 ovarian): > 100 µM
GI50 (HOP-92 NSCLC): 5.47 µM
TGI (HOP-92 NSCLC): 31.2 µM
GI50 (MCF7 breast): 15.9 µM
TGI (MCF7 breast): 51.7 µM
GI50 (UACC-257 melanoma): 36.4 µM
TGI (UACC-257 melanoma): > 100 µM
GI50 (SK-MEL-2 melanoma): 28 µM
TGI (SK-MEL-2 melanoma): > 100 µM
GI50 (SK-MEL-5 melanoma): 7.55 µM
TGI (SK-MEL-5 melanoma): 26.6 µM
GI50 (T-47D breast): 30.7 µM
TGI (T-47D breast): > 100 µM
GI50 (SK-MEL-28 melanoma): 37.7 µM
TGI (SK-MEL-28 melanoma): > 100 µM
GI50 (COLO 205 colon): 89.5 µM
TGI (COLO 205 colon): > 100 µM

Cn1nc(C(F)(F)F)c(-c2ccc(Cl)c(C(F)(F)F)c2)c1-c1ccc(OCc2ccc(Cl)cc2)cc1O
GI50 (RXF 393 renal): 1.41 µM
TGI (RXF 393 renal): 4.32 µM
GI50 (OVCAR-4 ovarian): 1.62 µM
TGI (OVCAR-4 ovarian): 6.13 µM
GI50 (HOP-92 NSCLC): 1.11 µM
TGI (HOP-92 NSCLC): 3.02 µM
GI50 (MCF7 breast): 1.52 µM
TGI (MCF7 breast): 6.01 µM
GI50 (UACC-257 melanoma): 1.37 µM
TGI (UACC-257 melanoma): 4.09 µM
GI50 (SK-MEL-2 melanoma): 1.41 µM
TGI (SK-MEL-2 melanoma): 4.52 µM
GI50 (SK-MEL-5 melanoma): 1.02 µM
TGI (SK-MEL-5 melanoma): 2.23 µM
GI50 (T-47D breast): 1.27 µM
TGI (T-47D breast): 5.32 µM
GI50 (SK-MEL-28 melanoma): 1.88 µM
TGI (SK-MEL-28 melanoma): 7.33 µM
GI50 (COLO 205 colon): 1.41 µM
TGI (COLO 205 colon): 4.45 µM

COc1ccc(N2CCN(C(=O)c3ccccc3Nc3ccnc(C(F)(F)F)c3)CC2)cc1
GI50 (RXF 393 renal): 99.9 µM
TGI (RXF 393 renal): > 100 µM
GI50 (OVCAR-4 ovarian): 22.4 µM
TGI (OVCAR-4 ovarian): > 100 µM
GI50 (HOP-92 NSCLC): 5.33 µM
TGI (HOP-92 NSCLC): 68.8 µM
GI50 (MCF7 breast): 36.4 µM
TGI (MCF7 breast): > 100 µM
GI50 (UACC-257 melanoma): 20.8 µM
TGI (UACC-257 melanoma): > 100 µM
GI50 (SK-MEL-2 melanoma): > 100 µM
TGI (SK-MEL-2 melanoma): > 100 µM
GI50 (SK-MEL-5 melanoma): 10.3 µM
TGI (SK-MEL-5 melanoma): 29.4 µM
GI50 (T-47D breast): 9.23 µM
TGI (T-47D breast): 96.7 µM
GI50 (SK-MEL-28 melanoma): > 100 µM
TGI (SK-MEL-28 melanoma): > 100 µM
GI50 (COLO 205 colon): 63 µM
TGI (COLO 205 colon): > 100 µM

O=[N+]([O-])c1cccc([N+](=O)[O-])c1S(=O)(=O)c1ccccc1
TGI (HOP-92 NSCLC): 7.18 µM
TGI (MCF7 breast): 43.1 µM
TGI (UACC-257 melanoma): 28.8 µM
TGI (SK-MEL-5 melanoma): 28.3 µM
TGI (T-47D breast): 4.8 µM
TGI (SK-MEL-28 melanoma): 15.2 µM
TGI (COLO 205 colon): 19.4 µM

NC(=O)CCC(NC(=O)OCc1ccccc1)C(=O)OCC(=O)c1ccccc1 (configuration not stated)
GI50 (RXF 393 renal): > 100 µM
TGI (RXF 393 renal): > 100 µM
GI50 (OVCAR-4 ovarian): > 100 µM
TGI (OVCAR-4 ovarian): > 100 µM
GI50 (HOP-92 NSCLC): > 100 µM
TGI (HOP-92 NSCLC): > 100 µM
GI50 (MCF7 breast): > 100 µM
TGI (MCF7 breast): > 100 µM
GI50 (UACC-257 melanoma): > 100 µM
TGI (UACC-257 melanoma): > 100 µM
GI50 (SK-MEL-2 melanoma): > 100 µM
TGI (SK-MEL-2 melanoma): > 100 µM
GI50 (SK-MEL-5 melanoma): > 100 µM
TGI (SK-MEL-5 melanoma): > 100 µM
GI50 (T-47D breast): > 100 µM
TGI (T-47D breast): > 100 µM
GI50 (SK-MEL-28 melanoma): 43.9 µM
TGI (SK-MEL-28 melanoma): > 100 µM
GI50 (COLO 205 colon): > 100 µM
TGI (COLO 205 colon): > 100 µM
